Measurements: patent US20210395327A1, “Growth Hormone-Releasing Hormone Antagonists and Uses Thereof” (United States Government As Represented By The Department …, priority 2019, published 2021)
Non-standard residues stand in square brackets, D forms with d. Residues, ends and D or L forms follow the SMILES beside them. *: point of attachment. Phenylacetyl(2,3,4,5,6-F5) = O=C(Cc1c(F)c(F)c(F)c(F)c1F)*; Phe(F5) = N[C@@H](Cc1c(F)c(F)c(F)c(F)c1F)C(=O)O; Phe(4-Cl) = N[C@@H](Cc1ccc(Cl)cc1)C(=O)O; hArg = N=C(N)NCCCC[C@H](N)C(=O)O; 12Ado = NCCCCCCCCCCCC(=O)O; Nle = CCCC[C@H](N)C(=O)O; Orn = NCCC[C@H](N)C(=O)O; Abu = CC[C@H](N)C(=O)O

Assays:
[1] = tested on: NCI-N87 stomach cancer cells; assay: In vitro cell viability (CellTiter 96), N87; type: cell-based, human; conditions: for In vitro relative inhibitory potency in comparison to MIA-602, NCI-N87: Table 3B, 5 μM for 72 H, MIA-602 = 1
Experimental: The inhibitory effects of the various synthesized GHRH antagonists were tested in cell proliferation assays in various human cancer cell lines including stomach cancer (KATOIII, N87), colon cancer (HT-29), urothelial cancer (J82, RT4), pancreatic cancer (PANC-1, CFPAC-1), prostatic cancer (PC3), breast cancer (MX-1, HCC1806), ovarian cancer (SK-OV-3, OVCAR-3) and lung cancer (HCC827, H460).
(§1) Cell culture. Human cancer cell lines including pancreatic (PANC-1 and CFPAC-1), lung (HCC827 and H460), stomach (NCI-N87 and KATOIII), urothelial (J82, RT4), prostatic (PC3), breast (MX-1 and HCC 1806), colorectal (HT-29), and ovarian (SK-OV-3 and OVCAR-3) were obtained from the American Type Culture Collection (ATCC) and cultured at 37° C. in a humidified 95% air/5% CO2 atmosphere in the medium recommended by ATCC.
In vitro cell viability. Cell viability was analyzed as follows: cancer cells including pancreatic (PANC-1 and CFPAC-1), lung (HCC827 and H460), stomach (NCI-N87 and KATOIII), urothelial (J82, RT4), prostatic (PC3) and breast (MX-1 and HCC 1806), colorectal (HT-29) and ovarian (SK-OV-3 and OVCAR-3) were grown on 96 well plates to ˜60% confluence, the cells were starved for 24 h in culture medium containing 0.5% FBS. Cells were then treated with GHRH antagonists MIA602 AVR compounds at concentrations of 1, 2.5 or 5 μM, or vehicle (0.1% DMSO) in quintuplicates for 72 hours. The medium was replaced every 48 hours. Cell viability was measured using CellTiter 96 aqueous one solution kit (Promega). Inhibitory effects of tested AVR compounds in comparison to that of MIA602 are presented as inhibitory potency.
Inhibitory effects of selected AVR compounds in comparison to that of MIA602 are presented as inhibitory potency (e.g., percentage of inhibition). […] The cell lines tested including lung cancer HCC827 (FIG. 2A), pancreatic cancer CFPAC-1 (FIG. 2B), stomach cancer N87 (FIG. 2C), colon cancer HT-29 (FIG. 2D), breast cancers MX-1 and HCC1806 (FIGS. 2 E, F). Based on the results of cell proliferation assay after cancer cells were treated with antagonist at concentration of 5 μM for 72H, the relative inhibitory potency of AVR antagonists in comparison to MIA-602 is summarized in Table 3 A and B. Over 60 AVR compounds were tested in 12 cancer cell lines.
Based on the results of cell proliferation assay after cancer cells were treated with antagonist at concentration of 5 µM for 72H, * at concentration of 2 µM for 72 H.

[2] = tested on: stomach cancer N87 xenograft; assay: Xenograft tumor growth in nude mice, N87; type: in vivo; conditions: for % Inhibition: vs control
Experimental: The peptides' activity was compared with GHRH antagonist MIA-602. All statistical analyzses were performed from comparing GHRA antagonists to non-treated tumor (control).
Peptides and chemicals. GHRH antagonists MIA-602 and AVR-GHRH antagonists (see Table 2 above) were synthesized by solid phase methods and purified by HPLC. The peptides were dissolved in DMSO and further diluted in 10% 1,2-propanediol. The final concentration of peptides was 50 µg/ml in 10% 1,2-propanediol containing 0.1% of DMSO.
as §1, with “(NCI-N87), prostate” for “(NCI-N87 and KATOIII), urothelial (J82, RT4), prostatic”, “brest” for “breast”, “HCC-1806),” for “HCC 1806),”
Xenograft models of human cancers in nude mice. Female athymic (NCr nu/nu) nude mice, 5- to 6-weeks-old, obtained from the Envigo labs (Tampa, Fla.), were housed in laminar airflow cabinets under pathogen-free conditions with a 12-h light/12-h dark schedule, and were fed autoclaved standard chow and water. To generate mice with xenografted tumors, tumor xenografts were initiated by subcutaneous (s.c.) injection of 107 human cancer cells into female nude mice. After about 4 weeks the resulting tumors were dissected and collected after removing necrosis tissues. The tumors were then cut into particles with size of 3 mm3 and transplanted s.c. by trocar needle into experimental animals. When tumors grew to the size of 50-60 mm3 (by volume), […] of 5 μg of GHRH antagonists MIA-602 or AVR-compounds (2-10 μg as indicated), or vehicle solutions (0.1% DMSO in 10% 1,2-propanediol) respectively. Tumor sizes were measured weekly.
Statistical analysis. One-way ANOVA followed by Bonferroni comparison were performed. Data are expressed as Mean±SEM. To determine statistical significance between animal groups, two-tailed Student's t-test was conducted. Differences were considered significant when p<0.05.
Results. […] FIG. 1A-N represents in vivo inhibition of tumor growth during the treatment with GHRH antagonist MIA-602 and selected AVR antagonists in nude mice xenografted with various human tumors including pancreatic cancer PANC-1 (FIG. 1A) and CFPAC-1 (FIG. 1I); lung cancer HCC827 (FIGS. 1B, C) and H460 (FIG. 1H); stomach cancer N87 (FIGS. 1D-F); colon cancer HT-29 (FIG. 1G); breast cancer MX-1 and HCC-1806 (FIGS. 1J, K); ovarian cancer SK-OV-3 and OVACAR-3 (FIGS. 1 L, M) and prostate cancer PC3 (FIG. 1N). See also Table 5.

[3] = Table 4D, Stomach Ca N87, 10 weeks, 2 μg/day s.c.
[4] = Table 4F, Stomach Ca N87, 4 weeks, 2 μg/day s.c.
[5] = Table 4E, Stomach Ca N87, 4 weeks, 2 μg/day s.c.
[6] = Table 4E, Stomach Ca N87, 4 weeks, 5 μg/day s.c.

Compound | In vitro relative inhibitory potency in comparison to MIA-602, NCI-N87 [1] | relative inhibitory potency in comparison to MIA-602, Stomach N87 ([1]; antagonist 5 μM for 72 h, cell proliferation assay, MIA602 = 1) | Tumor Size (mm^3) [2, 3] [mm^3] | % Inhibition [2, 3] [%] | Tumor Growth % [2, 4] [%] | % Inhibition [2, 4] [%] | Tumor Growth % [2, 5] [%] | % Inhibition [2, 5] [%] | Tumor Growth % [2, 6] [%] | % Inhibition [2, 6] [%]
CCCC[C@H](NC(=O)[C@@H](NC(=O)[C@H](CC(=O)O)NC(=O)[C@H](CCC(N)=O)NC(=O)[C@H](CC(C)C)NC(=O)[C@H](CC(C)C)NC(=O)[C@H](CCCCN)NC(=O)[C@H](CCCNC(=N)N)NC(=O)[C@H](C)NC(=O)[C@H](CO)NC(=O)[C@H](CC(C)C)NC(=O)[C@H](CCC(N)=O)NC(=O)[C@H](CC)NC(=O)[C@H](CC(C)C)NC(=O)[C@@H](NC(=O)[C@H](CCCCN)NC(=O)[C@H](CCCNC(=N)N)NC(=O)[C@H](Cc1ccc(OC)cc1)NC(=O)[C@H](CCCCNC(=N)N)NC(=O)[C@H](C)NC(=O)[C@@H](NC(=O)[C@H](Cc1c(F)c(F)c(F)c(F)c1F)NC(=O)[C@@H](NC(=O)[C@H](C)NC(=O)[C@H](CC(=O)O)NC(=O)[C@@H](CCCNC(=N)N)NC(=O)[C@H](Cc1ccc(O)cc1)NC(=O)CCCCCCCCCCCNC(=O)Cc1c(F)c(F)c(F)c(F)c1F)[C@@H](C)CC)[C@@H](C)O)C(C)C)[C@@H](C)CC)C(=O)N[C@H](CCCNC(=N)N)C(=O)N[C@@H](CCCCNC(=N)N)C(=O)NC [AVR-235] ({Phenylacetyl(2,3,4,5,6-F5)-12Ado}-Y[dR]DAI[Phe(F5)]TA[hArg]Y(Me)RKVL[Abu]QLSARKLLQDI[Nle][dR][hArg]-NHMe) | 1.67 | 2.911 | 558.60 | 54.4 | 312.80 | 64.9 |  |  |  | 
CCCC[C@H](NC(=O)[C@@H](NC(=O)[C@H](CC(=O)O)NC(=O)[C@H](CCC(N)=O)NC(=O)[C@H](CC(C)C)NC(=O)[C@H](CC(C)C)NC(=O)[C@H](CCCCN)NC(=O)[C@H](CCCNC(=N)N)NC(=O)[C@H](C)NC(=O)[C@H](CO)NC(=O)[C@H](CC(C)C)NC(=O)[C@H](CCC(N)=O)NC(=O)[C@H](CC)NC(=O)[C@H](CC(C)C)NC(=O)[C@@H](NC(=O)[C@H](CCCCN)NC(=O)[C@H](CCCNC(=N)N)NC(=O)[C@H](Cc1ccc(OC)cc1)NC(=O)[C@H](CCCCNC(=N)N)NC(=O)[C@H](CC(N)=O)NC(=O)[C@@H](NC(=O)[C@H](Cc1ccc(Cl)cc1)NC(=O)[C@@H](NC(=O)[C@H](C)NC(=O)[C@H](CC(=O)O)NC(=O)[C@@H](CCCNC(=N)N)NC(=O)[C@H](Cc1ccc(O)cc1)NC(=O)CCCCCCCCCCCNC(=O)Cc1c(F)c(F)c(F)c(F)c1F)[C@@H](C)CC)[C@@H](C)O)C(C)C)[C@@H](C)CC)C(=O)N[C@H](CCCNC(=N)N)C(=O)N[C@@H](CCCCNC(=N)N)C(=O)NCCCCCCCCCCCC(N)=O [AVR-333, 5FPhAC-Ada-Tyr-DArg-Asp-Ala-Ile-Cpa-Thr-Asn-Har-Tyr(Me)-Arg-Lys-Val-Leu-Abu-Gln-Leu-Ser-Ala-Arg-Lys-Leu-Leu-Gln-Asp-Ile-Nle-DArg-Har-Ada-NH2] ({Phenylacetyl(2,3,4,5,6-F5)-12Ado}-Y[dR]DAI[Phe(4-Cl)]TN[hArg]Y(Me)RKVL[Abu]QLSARKLLQDI[Nle][dR][hArg][12Ado]-NH2) | 1.4 |  | 454.00 | 62.9 |  |  |  |  |  | 
CCCC[C@H](NC(=O)[C@@H](NC(=O)[C@H](CC(=O)O)NC(=O)[C@H](CCC(N)=O)NC(=O)[C@H](CC(C)C)NC(=O)[C@H](CC(C)C)NC(=O)[C@H](CCCN)NC(=O)[C@H](Cc1c[nH]cn1)NC(=O)[C@H](C)NC(=O)[C@H](CO)NC(=O)[C@H](CC(C)C)NC(=O)[C@H](CCC(N)=O)NC(=O)[C@H](CC)NC(=O)[C@H](CC(C)C)NC(=O)[C@@H](NC(=O)[C@H](CCCN)NC(=O)[C@H](Cc1c[nH]cn1)NC(=O)[C@H](Cc1c(F)c(F)c(F)c(F)c1F)NC(=O)[C@H](CCCCNC(=N)N)NC(=O)[C@H](C)NC(=O)[C@@H](NC(=O)[C@H](Cc1ccc(Cl)cc1)NC(=O)[C@@H](NC(=O)[C@H](C)NC(=O)[C@H](CC(=O)O)NC(=O)[C@@H](CCCNC(=N)N)NC(=O)[C@H](Cc1ccc(O)cc1)NC(=O)CCCCCCCCCCCNC(=O)Cc1c(F)c(F)c(F)c(F)c1F)[C@@H](C)CC)[C@@H](C)O)C(C)C)[C@@H](C)CC)C(=O)N[C@H](CCCNC(=N)N)C(=O)N[C@@H](CCCCNC(=N)N)C(=O)NCCCCCCCCCCCC(=O)NC [AVR-543, 5FPhAC-Ada-Tyr-DArg-Asp-Ala-Ile-Cpa-Thr-Ala-Har-5FPhe-His-Orn-Val-Leu-Abu-Gln-Leu-Ser-Ala-His-Orn-Leu-Leu-Gln-Asp-Ile-Nle-DArg-Har-Ada-NHCH3] ({Phenylacetyl(2,3,4,5,6-F5)-12Ado}-Y[dR]DAI[Phe(4-Cl)]TA[hArg][Phe(F5)]H[Orn]VL[Abu]QLSAH[Orn]LLQDI[Nle][dR][hArg][12Ado]-NHMe) | 0.908 |  |  |  |  |  | 406.8 | 48.4 | 313.90 | 64.8
